# Results taken from patent publication US20110207829A1, “CONTROL OF TERMITES, FIRE ANTS AND CARPENTER ANTS” (Bedoukian Research, Inc, priority 2008, published 2011).
# Columns and labels:
# [1] = test system: Formosan subterranean termites; assay: Assay for Vapor Toxicity (1 liter bottles); assay type: in vivo, Coptotermes formosanus
# Experimental: (§1) Formosan subterranean termites were collected from bucket traps placed in City Park,
# (§2) New Orleans, La. Altogether five colonies designated 1314, 1559, 1732, 1743 and 1756 were used in the tests. After collection, the termites (primarily workers and soldiers) were transferred to plastic boxes with moist spruce slats. The boxes were stored in an incubator maintained at 28° C., 65% RH, and constant darkness. Termites were used within one month of their collection.
# Assay for Vapor Toxicity. This test was conducted in 960 ml (approximately 1 liter) wide-mouth clear Qorpak™ (All-Pak, Inc.) bottles with PTFE lined caps. A 60 mm diameter glass Petri dish with a moist filter paper and 50 termite workers was placed at the bottom of each bottle. The test chemical was applied to a 1 cm diameter filter paper and suspended with an insect pin from the cap-liner. Each chemical was initially tested at 1 mg then at 0.1 and 0.5 mg. Since 0.1 and 0.5 mg doses caused very low and 100% mortality respectively, the final test was carried out at 0.25 mg. Each chemical was tested with different termite colonies and replicated three times. The bottles were placed in the incubator. Mortality was recorded after 1, 2 and 3 days by quickly taking the glass Petri dish with the termites out of the bottle (with a pair of long forceps) and replacing it after removing the dead workers.
# carpenter ants = assay: Carpenter ant test in sealed jars; assay type: in vivo; conditions: within 24 hours; one drop (approximately 25 to 30 mg) on filter paper in sealed jar
# Experimental: One drop (approximately 25 to 30 mg) of test compound (l-linaloo , l-carvone, and Styralyl Alcohol,) was applied to a filter paper within sealed jars (16 oz glass jar, 3½ inch diameter, 3⅞ inch high with plastic lids) containing ten carpenter ants per replicate with there being five replicates. Five negative controls with no test compounds were also run. The l-linalool, l-carvone, and styralyl alcohol each provided 100% mortality to the carpenter ants within 24 hours while the control produced 6% mortality over the same 24 hour period.
# [2] = test system: Formosan subterranean termites; assay: Vapor Toxicity Under Subterranean Conditions (soil and wood); assay type: in vivo, Coptotermes formosanus; conditions: for termites killed (vapor toxicity under subterranean conditions): 25 mg
# Experimental: as §1, §2
# Vapor Toxicity Under Subterranean Conditions. This test was also conducted in the
# Qorpak™ bottles. A 35 by 40 by 7 mm piece of moist spruce was placed at the bottom of the bottle and covered with 40 g fine-sifted black soil. One hundred workers were released into each bottle and allowed to tunnel under the soil and into the wood. After 3 days, a test chemical was applied to a filter paper and suspended from the cap-liner. The chemicals were tested at a rate of 25 mg. […] The test was conducted with termites from 3 colonies and replicated 3 times.
# [3] = test system: Formosan subterranean termites; assay: Assay for Contact Toxicity (treated filter paper in Petri dishes); assay type: in vivo, Coptotermes formosanus; conditions: 1 day; rate of 0.5 mg/liter
Compound,mortality to carpenter ants (carpenter ants),effectiveness against termites in soil and wood [2],termites killed (vapor toxicity under subterranean conditions) ([2]; 2 days),other results
"CC(O)c1ccccc1 (stereo not drawn) [Styralyl Alcohol, alpha-methyl benzyl alcohol]",100%,,,"termites killed (vapor toxicity) ([1]; 2 days, 0.25 mg/liter volume): 100%; termites killed (vapor toxicity under subterranean conditions) ([2]; time not given): 11%; termites killed (contact toxicity) [3]: 98%"
"C=C(C)C1CC=C(C)C(O)C1 (mixture of isomers) [carveol, reference compound]",,totally ineffective,,
"CC(C)=CCC/C(C)=C/CO [geraniol, reference compound]",,totally ineffective,,
"Cc1ccc(C(C)C)cc1 [p-cymene, reference compound]",,totally ineffective,,
"CC(C)=CCCC(C)CC=O (stereo not drawn) [citronellal, reference compound]",,totally ineffective,,
CCC(C)(O)CCCC(C)C (stereo not drawn) [tetrahydrolinalool],,,53%,
l-carvone,100%,,57%,"termites killed (vapor toxicity) ([1]; 1 day, 0.5 mg): 100%; termites killed (vapor toxicity) ([1]; 3 days, 0.25 mg): 95%; termites killed (vapor toxicity under subterranean conditions) ([2]; one day): 37%"
C=C[C@](C)(O)CCC=C(C)C [l-linalool],100%,,69%,"termites killed (vapor toxicity) ([1]; 1 day, 0.5 mg): 100%; termites killed (vapor toxicity) ([1]; 3 days, 0.25 mg): 70%"
